Patent publication US6541480B2, “1-aryl-1,8-naphthylidin-4-one derivative as type IV phosphodiesterase inhibitor” (Suntory Limited, priority 1997, dated 2003)
pIC50: −log10 of the molar value. Where a name gives a salt, the structure may show the parent alone.

Key:
[1] = tested on: type IV phosphodiesterase; test: Type IV phosphodiesterase inhibiting activity (3H-cAMP hydrolysis, PDE IV fraction from U937 cells); format: biochemical; details: PDE IV fraction from human U937 cells, 30° C., 30 minutes
Procedure: (1) Method of Measurement of Type IV Phosphodiesterase Inhibiting Activity
The following assay was used to evaluate the ability of the compound of the present invention to suppress type IV phosphodiesterase, according to Biochemical.
1) Type IV phosphodiesterase activity fractions were prepared as follows. Human histiocytic lymphoma cell line U937 was cultured in an RPMI1640 medium containing 10% fetal calf serum to obtain 10^9 cells of U937. The cells were recovered by centrifugation and suspended in 40 ml of buffer A (20 mM bis-tris, 5 mM 2-mercaptoethanol, 2 mM benzamidine, 2 mM EDTA, 0.1 mM 4-(2-aminoethyl)benzensulfonyl hydrochloride, 50 mM sodium acetate, pH=6.5). The cells were broken by a sonication and centrifuged (4° C., 10,000G, 10 minutes) to obtain a supernatent. This was filtered by a 0.45 μm filter to obtain the soluble fraction.
The soluble fraction obtained was applied into a 1×10 cm DEAE Sepharose column equalibrated with the buffer A. 120 ml of the buffer A containing a linear gradient solution of 0.05 to 1 M sodium acetate was used to separate the phosphodiesterase and recover 24 5-ml fractions. Each of the fractions was measured for the cAMP phosphodiesterase activity.
2) The test compound was reacted at a desired concentration in a reaction mixture containing 20 mM tris-HCl (pH 7.5), 1 mM MgCl2, 100 μM EDTA, 330 μg/ml calf serum albumin, 10 μg/ml 5′-nucleotidase, 0.4 μCi ^3H-cAMP ([…] cAMP) and the type IV phosphodiesterase stored solution at 30° C. for 30 minutes. QAE-Sephadex suspended in 10 mM of hepes-Na (pH-7.0) was added to the reaction mixture which was then allowed to stand for 5 minutes, then the supernatant was obtained, QAE-Sephadex was further added, to the supernatant, and was allowed to stand for 5 minutes, then the supernatant was obtained and measured for radioactivity.

[2] = tested on: TNF-α production by LPS stimulated mouse peritoneal macrophages; test: TNF-α production inhibitory activity by LPS stimulated macrophages (ELISA); format: cell-based; details: LPS 10 μg/ml, 8 hours
Procedure: (1) Method of Measurement of TNF-α Production Inhibitory Activity by LPS Stimulated Macrophages
The following assay was used to evaluate the ability of the compound of the present invention to suppress TNF-α production by LPS stimulated macrophages according to Immuno pharmacol. 29, 121-127 (1995).
1) 6 to 10 week old female BALB/c mice were used, 2 ml portions of thioglycolate were intraperitoneally administered, and the abdominal cavities were washed by 10 ml of PBS after 4 days, whereby 1 to 2×10^7 peritoneal cells were obtained per mouse. These were suspended in a hemocyte solution (0.75% ammonium chloride, 17 mM tris-hydrochlorate buffer, pH7.2), centrifuged, then resuspended in an RPMI1640 medium including 10% fetal calf serum and seeded in a 96-well cell culture plate at a density of 1×10^5 cells/50 μl/well. Since these cells adhered strongly to the tissue culture plate and were positive in nonspecific esterase staining, they were used for the test as mouse peritoneal macrophages. Mouse peritoneal macrophages were precultured overnight at 37° C. in 5% CO2 for the experiment.
2) E. Coli (serum type 055:B5) derived LPS was dissolved in PBS in a concentration of 1 mg/ml, then sterilized by filtration. The test compound was dissolved in DMSO to make a 1000-fold concentration solution of the final concentration of use. 10 μl of the above LPS stock solution (final concentration 10 μg/ml) and 1 μl of the tested substance stock solution were added and mixed in 0.5 ml of RPMI1640 medium containing 10% fetal calf serum. This was added to the above cells at 50 μl/well and cultured for 8 hours. The cultured supernatant was recovered from each well and the TNF-α concentration was measured by the ELISA method (Cytoscreen® Immunoassay Kit Mouse TNF-α, BioSource International).

SMILES: CCOC(=O)c1cccc(NC(=O)c2cn(-c3ccc(F)cc3)c3ncccc3c2=O)c1 [Example 85, Ethyl 3-[{[1-(4-Fluorophenyl)-1,4-dihydro[1,8]naphthylidin-4-one-3-yl]carbonyl}amino]benzoate]
- pIC50 [1]: 6.26

SMILES: O=C(Nc1ccncc1)c1cn(-c2ccc(Cl)cc2)c2ncccc2c1=O [Example 124, 1-(4-Chlorophenyl)-N-(4-pyridyl)-1,4-dihydro[1,8]naphthylidin-4-one-3-carboxamide]
- pIC50 [1]: 6.96

SMILES: O=C(Nc1cccnc1)c1cn(-c2ccncc2)c2ncccc2c1=O [Example 138, N-(3-Pyridyl)-1-(4-pyridyl)-1,4-dihydro[1,8]naphthylidin-4-one-3-carboxamide]
- pIC50 [1]: 7.36
- pIC50 ([2]; Peritoneal macrophage): 6.40

SMILES: Cc1cnccc1NC(=O)c1cn(-c2ccncc2)c2ncccc2c1=O [Example 140, N-(3-Methylpyridin-4-yl)-1-(4-pyridyl)-1,4-dihydro[1,8]naphthylidin-4-one-3-carboxamide]
- pIC50 [1]: 7.44
- pIC50 [2]: 8.30

SMILES: Nc1ccc(-n2cc(C(=O)Nc3ccncc3)c(=O)c3cccnc32)cn1 [Example 143, 1-(2-Aminopyridin-5-yl)-N-(4-pyridyl)-1,4-dihydro[1,8]naphthylidin-4-one-3-carboxamide hydrochloride]
- pIC50 [1]: 6.85
- pIC50 ([2]; Peritoneal macrophage): 6.82

SMILES: NC(=O)c1cccc(NC(=O)c2cn(-c3ccc(F)cc3)c3ncccc3c2=O)c1 [Example 87, N-[3-(aminocarbonyl)phenyl]-1-(4-fluorophenyl)-1,4-dihydro[1,8]naphthylidin-4-one-3-carboxamide]
- pIC50 [1]: 7.14
- pIC50 ([2]; Peritoneal macrophage): 6.70

SMILES: O=C(NCc1cccnc1)c1cn(-c2ccc(F)cc2)c2ncccc2c1=O [Example 63, 1-(4-Fluorophenyl)-N-(3-pyridyl)methyl-1,4-dihydro[1,8]naphthylidin-4-one-3-carboxamide]
- pIC50 [1]: 5.92

SMILES: O=C(Nc1cccc([N+](=O)[O-])c1)c1cn(-c2ccc(F)cc2)c2ncccc2c1=O [Example 94, 1-(4-Fluorophenyl)-N-(3-nitrophenyl)-1,4-dihydro[1,8]naphthylidin-4-one-3-carboxamide]
- pIC50 [1]: 6.46
- pIC50 ([2]; Peritoneal macrophage): 6.30

SMILES: O=C(Nc1c(Cl)cncc1Cl)c1cn(-c2ccccc2)c2ncccc2c1=O [Example 118, N-(3,5-Dichloropyridin-4-yl)-1-phenyl-1,4-dihydro[1,8]naphthylidin-4-one-3-carboxamide]
- pIC50 [1]: 9.70
- pIC50 ([2]; Peritoneal macrophage): 9.40

SMILES: O=C(Nc1ccncn1)c1cn(-c2ccc(F)cc2)c2ncccc2c1=O [Example 107, 1-(4-Fluorophenyl)-N-(4-pyrimidyl)-1,4-dihydro[1,8]naphthylidin-4-one-3-carboxamide]
- pIC50 [1]: 6.28
- pIC50 ([2]; Peritoneal macrophage): 6.00

SMILES: COc1ccccc1NC(=O)c1cn(-c2ccc(F)cc2)c2ncccc2c1=O [Example 76, 1-(4-Fluorohenyl)-N-(2-methoxyphenyl)-1,4-dihydro[1,8]naphthylidin-4-one-3-carboxamide]
- pIC50 [1]: 6.30

SMILES: O=C(Nc1c(Cl)cccc1Cl)c1cn(-c2ccncc2)c2ncccc2c1=O [Example 137, N-(2,6-Dichlorophenyl)-1-(4-pyridyl)-1,4-dihydro[1,8]naphthylidin-4-one-3-carboxamide]
- pIC50 [1]: 8.31
- pIC50 ([2]; Peritoneal macrophage): 8.40

SMILES: O=C(NCc1ccccn1)c1cn(-c2ccc(F)cc2)c2ncccc2c1=O [Example 62, 1-(4-Fluorophenyl)-N-(2-pyridyl)methyl-1,4-dihydro[1,8]naphthylidin-4-one-3-carboxamide]
- pIC50 [1]: 5.80

SMILES: Cc1cccc(C)c1NC(=O)c1cn(-c2ccc(F)cc2)c2ncccc2c1=O [Example 72, 1-(4-Fluorophenyl)-N-(2,6-xylidyl)-1,4-dihydro[1,8]naphthylidin-4-one-3-carboxamide]
- pIC50 [1]: 6.74
- pIC50 ([2]; Peritoneal macrophage): 8.00

SMILES: Cc1ccc(-n2cc(C(=O)Nc3c(Cl)cncc3Cl)c(=O)c3cccnc32)cc1 [Example 121, N-(3,5-Dichloroiyridin-4-yl)-1-(4-tolyl)-1,4-dihydro[18]naphthylidin-4-one-3-carboxamide]
- pIC50 [1]: 8.51

SMILES: O=C(Nc1c(Cl)cncc1Cl)c1cn(-c2ccc(OCc3ccccc3)nc2)c2ncccc2c1=O [Example 146, 1-(2-Benzyloxypyridin-5-yl)-N-(3,5-dichloropyridin-4-yl)-1,4-dihydro[1,8]naphthylidin-4-one-3-carboxamide]
- pIC50 [1]: 8.77
- pIC50 ([2]; Peritoneal macrophage): 8.00

SMILES: COc1ccc(C2CNC(=O)C2)cc1OC1CCCC1 (stereo not shown) [Rolipram, reference compound]
- pIC50 ([2]; Peritoneal macrophage): 7.00

SMILES: N=C(N)c1cccc(NC(=O)c2cn(-c3ccc(F)cc3)c3ncccc3c2=O)c1 [Example 97, N-(benzamidin-3-yl)-1-(4-fluorophenyl)-1,4-dihydro[1,8]naphthylidin-4-one-3-carboxamide hydrochloride]
- pIC50 [1]: 6.33

SMILES: CC(C)(C)OC(=O)Nc1ncc(-n2cc(C(=O)Nc3ccncc3)c(=O)c3cccnc32)cn1 [Example 150, 1-(2-tert-Butyloxycarbonylaminopyrimidin-5-yl)-N-(4-pyridyl)-1,4-dihydro[1,8]naphthylidin-4-one-3-carboxamide]
- pIC50 [2]: 6.40

SMILES: O=C(Nc1ccccc1-c1ccccc1)c1cn(-c2ccc(F)cc2)c2ncccc2c1=O [Example 100, N-(2-Biphenyl)-1-(4-fluorophenyl)-1,4-dihydro[1,8]naphthylidin-4-one-3-carboxamide]
- pIC50 [1]: 6.19

SMILES: COCCNC(=O)c1cn(-c2ccc(F)cc2)c2ncccc2c1=O [Example 59, 1-(4-fluorophenyl)-N-(2-methoxyethyl)-1,4-dihydro[1,8]naphthylidin-4-one-3-carboxamide]
- pIC50 [1]: 6.19

SMILES: COc1ccc(-n2cc(C(=O)Nc3c(Cl)cncc3Cl)c(=O)c3cccnc32)cc1 [Example 123, N-(3,5-Dichloropyridin-4-yl)-1-(4-methoxyphenyl)-1,4-dihydro[1,8]naphthyldin-4-one-3-carboxamide]
- pIC50 [1]: 9.22

SMILES: O=C(Nc1ccncc1)c1cn(-c2ccc(O)nc2)c2ncccc2c1=O [Example 145, 1-(2-Hydroxypyridin-5-yl)-N-(4-pyridyl)-1,4-dihydro[1,8]naphthylidin-4-one-3-carboxamide]
- pIC50 [1]: 6.40

SMILES: Cc1ccc(-n2cc(C(=O)Nc3ccncc3)c(=O)c3cccnc32)cc1 [Example 120, N-(4-Pyridyl)-1-(4-tolyl)-1,4-dihydro[1,8]naphthylidin-4-one-3-carboxamide]
- pIC50 [1]: 7.00

SMILES: O=C(Nc1cccnc1)c1cn(-c2ccccn2)c2ncccc2c1=O [Example 131, 1-(2-Pyridyl)-N-(3-pyridyl)-1,4-dihydro[1,8]naphthylidin-4-one-3-carboxamide]
- pIC50 [1]: 6.23

SMILES: CCOC(=O)c1cn(-c2cccc([N+](=O)[O-])c2)c2ncccc2c1=O [Example 19, Ethyl 1-(3-Nitrophenyl)-1,4-dihydro[1,8]naphthylidin-4-one-3-carboxylate]
- pIC50 [1]: 6.03

SMILES: N=C(N)c1cccc(-n2cc(C(=O)Nc3ccncc3)c(=O)c3cccnc32)c1 [Example 130, 1-(Benzamidin-3-yl)-N-(4-pyridyl)-1,4-dihydro[1,8]naphthylidin-4-one-3-carboxamide]
- pIC50 [1]: 6.59

SMILES: O=C(Nc1ccncc1)c1cn(-c2cccc3cccnc23)c2ncccc2c1=O [Example 149, 1-(8-Quinonyl)-N-(4-pyridyl)-1,4-dihydro[1,8]naphthylidin-4-one-3-carboxamide]
- pIC50 [1]: 6.03

SMILES: CCOC(=O)c1cn(-c2cccc(C(C)=O)c2)c2ncccc2c1=O [Example 24, Ethyl 1-(3-Acetophenyl)-1,4-dihydro[1,8]naphthylidin-4-one-3-carboxylate]
- pIC50 [1]: 6.22

SMILES: CNC(=O)c1cn(-c2ccc(F)cc2)c2ncccc2c1=O [Example 52, 1-(4-Fluorophenyl)-N-methyl-1,4-dihydro[1,8]naphthylidin-4-one-3-carboxamide]
- pIC50 [1]: 6.82
